Measured values taken from patent US7632678B2, “Cancer stem cells and uses thereof” (The Hospital for Sick Children, priority 2005, dated 2009).
pIC50: −log10 of the molar value.

Test system: Tumor-initiating cells (NB12)
Assay: IC50 determination, alamarBlue cell survival/growth
Assay type: cell-based, human
Conditions: 10 serial dilutions 5 μM to 9 nM
Description: Tumor-initiating cells and normal cells were treated with 10 serial dilutions of compounds (5 μM to 9 nM). […] (FS90=normal cells; NB12=tumor-initiating cells).
Tumor-initiating cells (NB12) and normal cells (FS90) were treated with 10 serial dilutions of compounds ranging from 5 μM to 9 nM. […] IC50 values for NB12 are given above each plot.
IC50 values for NB12 and FS90 are given beside each plot.
For each cell type, cells were passaged 5 days prior to screening.

How did the pIC50 turn out when Dequalinium analog, C-14 linker was run?
The pIC50 was 5.95.
